Source: PubChem BioAssay (NCI)
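Exposure lasted 48 hours, with cells grown in 96-well plates and compounds tested at five concentrations. The concentration for 50% growth inhibition is given as GI50. At the TGI there is no net growth.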

Assays:
Assay in all cases: DTP human tumour cell line panel, 48 h
OVCAR-5 ovarian = system: OVCAR-5 ovarian
EKVX NSCLC = system: EKVX NSCLC
M14 melanoma = system: M14 melanoma
RXF 393 renal = system: RXF 393 renal
HOP-92 NSCLC = system: HOP-92 NSCLC
SK-MEL-28 melanoma = system: SK-MEL-28 melanoma
SNB-19 CNS = system: SNB-19 CNS
OVCAR-3 ovarian = system: OVCAR-3 ovarian
K-562 leukemia = system: K-562 leukemia
SF-268 CNS = system: SF-268 CNS
SW-620 colon = system: SW-620 colon
LOX IMVI melanoma = system: LOX IMVI melanoma
MALME-3M melanoma = system: MALME-3M melanoma
SF-539 CNS = system: SF-539 CNS
NCI-H23 lung = system: NCI-H23 lung
OVCAR-4 ovarian = system: OVCAR-4 ovarian
HOP-62 NSCLC = system: HOP-62 NSCLC
RPMI-8226 leukemia = system: RPMI-8226 leukemia
A549 NSCLC = system: A549 NSCLC
UACC-62 melanoma = system: UACC-62 melanoma
IGROV1 ovarian = system: IGROV1 ovarian
PC-3 prostate = system: PC-3 prostate
786-0 renal = system: 786-0 renal
HCT-15 colon = system: HCT-15 colon
CAKI-1 renal = system: CAKI-1 renal
MDA-MB-435 = system: MDA-MB-435
HS 578T breast = system: HS 578T breast
SNB-75 CNS = system: SNB-75 CNS
U251 CNS = system: U251 CNS
NCI/ADR-RES ovarian = system: NCI/ADR-RES ovarian
SR leukemia = system: SR leukemia
SN12C renal = system: SN12C renal
HCT-116 colon = system: HCT-116 colon
KM12 colon = system: KM12 colon
SK-OV-3 ovarian = system: SK-OV-3 ovarian
MOLT-4 leukemia = system: MOLT-4 leukemia
BT-549 breast = system: BT-549 breast
TK-10 renal = system: TK-10 renal
ACHN renal = system: ACHN renal
UO-31 renal = system: UO-31 renal
T-47D breast = system: T-47D breast
SK-MEL-2 melanoma = system: SK-MEL-2 melanoma
UACC-257 melanoma = system: UACC-257 melanoma
NCI-H226 lung = system: NCI-H226 lung
SK-MEL-5 melanoma = system: SK-MEL-5 melanoma
COLO 205 colon = system: COLO 205 colon
OVCAR-8 ovarian = system: OVCAR-8 ovarian
HL-60(TB) leukemia = system: HL-60(TB) leukemia
A498 renal = system: A498 renal
HT29 colon = system: HT29 colon
NCI-H460 lung = system: NCI-H460 lung
MDA-MB-231 breast = system: MDA-MB-231 breast
HCC-2998 colon = system: HCC-2998 colon
SF-295 CNS = system: SF-295 CNS
DU-145 prostate = system: DU-145 prostate
MCF7 breast = system: MCF7 breast

Question: How did the GI50 (OVCAR-5 ovarian) turn out when Cc1cc(I)cc(CN(C)CCCN2CCOCC2)c1O was run?
Answer: 45.3 µM

Question: What about the TGI (OVCAR-5 ovarian) of the same compound?
Answer: > 100 µM

Question: And the GI50 (EKVX NSCLC)?
Answer: 72.4 µM

Question: What about the TGI (EKVX NSCLC) of the same compound?
Answer: > 100 µM

Question: What about the GI50 (M14 melanoma) of the same compound?
Answer: 16 µM

Question: What about the TGI (M14 melanoma) of the same compound?
Answer: 32.3 µM

Question: And the GI50 (RXF 393 renal)?
Answer: 11.8 µM

Question: And the TGI (RXF 393 renal)?
Answer: 38.2 µM

Question: And the GI50 (HOP-92 NSCLC)?
Answer: 15.7 µM

Question: And the TGI (HOP-92 NSCLC)?
Answer: 98.2 µM

Question: What about the GI50 (SK-MEL-28 melanoma) of the same compound?
Answer: 17.4 µM

Question: What about the TGI (SK-MEL-28 melanoma) of the same compound?
Answer: 32.3 µM

Question: What about the GI50 (SNB-19 CNS) of the same compound?
Answer: 67.7 µM

Question: What about the TGI (SNB-19 CNS) of the same compound?
Answer: > 100 µM

Question: And the GI50 (OVCAR-3 ovarian)?
Answer: > 100 µM

Question: And the TGI (OVCAR-3 ovarian)?
Answer: > 100 µM

Question: And the GI50 (K-562 leukemia)?
Answer: 18 µM

Question: What about the TGI (K-562 leukemia) of the same compound?
Answer: 39.5 µM

Question: And the GI50 (SF-268 CNS)?
Answer: 38.3 µM

Question: What about the TGI (SF-268 CNS) of the same compound?
Answer: > 100 µM

Question: What about the GI50 (SW-620 colon) of the same compound?
Answer: 33.5 µM

Question: What about the TGI (SW-620 colon) of the same compound?
Answer: > 100 µM

Question: And the GI50 (LOX IMVI melanoma)?
Answer: 29.8 µM

Question: What about the TGI (LOX IMVI melanoma) of the same compound?
Answer: > 100 µM

Question: What about the GI50 (MALME-3M melanoma) of the same compound?
Answer: 16.2 µM

Question: What about the TGI (MALME-3M melanoma) of the same compound?
Answer: 32.9 µM

Question: What about the GI50 (SF-539 CNS) of the same compound?
Answer: 16.7 µM

Question: And the TGI (SF-539 CNS)?
Answer: 39.4 µM

Question: And the GI50 (NCI-H23 lung)?
Answer: 72.3 µM

Question: What about the TGI (NCI-H23 lung) of the same compound?
Answer: > 100 µM

Question: What about the GI50 (OVCAR-4 ovarian) of the same compound?
Answer: 63.2 µM

Question: And the TGI (OVCAR-4 ovarian)?
Answer: > 100 µM

Question: What about the GI50 (HOP-62 NSCLC) of the same compound?
Answer: 38.6 µM

Question: And the TGI (HOP-62 NSCLC)?
Answer: > 100 µM

Question: And the GI50 (RPMI-8226 leukemia)?
Answer: 17.8 µM

Question: And the TGI (RPMI-8226 leukemia)?
Answer: 46 µM

Question: What about the GI50 (A549 NSCLC) of the same compound?
Answer: 59.4 µM

Question: And the TGI (A549 NSCLC)?
Answer: > 100 µM

Question: What about the GI50 (UACC-62 melanoma) of the same compound?
Answer: 13.1 µM

Question: What about the TGI (UACC-62 melanoma) of the same compound?
Answer: 30.5 µM

Question: What about the GI50 (IGROV1 ovarian) of the same compound?
Answer: 20.7 µM

Question: What about the TGI (IGROV1 ovarian) of the same compound?
Answer: 72.6 µM

Question: And the GI50 (PC-3 prostate)?
Answer: 42.9 µM

Question: What about the TGI (PC-3 prostate) of the same compound?
Answer: > 100 µM

Question: What about the GI50 (786-0 renal) of the same compound?
Answer: 27.6 µM

Question: And the TGI (786-0 renal)?
Answer: > 100 µM

Question: And the GI50 (HCT-15 colon)?
Answer: 29 µM

Question: And the TGI (HCT-15 colon)?
Answer: > 100 µM

Question: And the GI50 (CAKI-1 renal)?
Answer: 29.4 µM

Question: And the TGI (CAKI-1 renal)?
Answer: > 100 µM

Question: And the GI50 (MDA-MB-435)?
Answer: 26 µM

Question: And the TGI (MDA-MB-435)?
Answer: > 100 µM

Question: And the GI50 (HS 578T breast)?
Answer: 13.5 µM

Question: What about the TGI (HS 578T breast) of the same compound?
Answer: > 100 µM

Question: And the GI50 (SNB-75 CNS)?
Answer: 21 µM

Question: And the TGI (SNB-75 CNS)?
Answer: 87.4 µM

Question: And the GI50 (U251 CNS)?
Answer: 36.3 µM

Question: And the TGI (U251 CNS)?
Answer: > 100 µM

Question: And the GI50 (NCI/ADR-RES ovarian)?
Answer: 67.5 µM

Question: And the TGI (NCI/ADR-RES ovarian)?
Answer: > 100 µM

Question: What about the GI50 (SR leukemia) of the same compound?
Answer: 19.6 µM

Question: And the TGI (SR leukemia)?
Answer: 48 µM

Question: And the GI50 (SN12C renal)?
Answer: > 100 µM

Question: What about the TGI (SN12C renal) of the same compound?
Answer: > 100 µM

Question: What about the GI50 (HCT-116 colon) of the same compound?
Answer: 24 µM

Question: What about the TGI (HCT-116 colon) of the same compound?
Answer: > 100 µM

Question: And the GI50 (KM12 colon)?
Answer: 29.6 µM

Question: And the TGI (KM12 colon)?
Answer: > 100 µM

Question: And the GI50 (SK-OV-3 ovarian)?
Answer: 82.9 µM

Question: And the TGI (SK-OV-3 ovarian)?
Answer: > 100 µM

Question: And the GI50 (MOLT-4 leukemia)?
Answer: 30.2 µM

Question: And the TGI (MOLT-4 leukemia)?
Answer: > 100 µM

Question: And the GI50 (BT-549 breast)?
Answer: 13.9 µM

Question: What about the TGI (BT-549 breast) of the same compound?
Answer: 85.5 µM

Question: What about the GI50 (TK-10 renal) of the same compound?
Answer: 45.6 µM

Question: And the TGI (TK-10 renal)?
Answer: > 100 µM

Question: And the GI50 (ACHN renal)?
Answer: > 100 µM

Question: And the TGI (ACHN renal)?
Answer: > 100 µM

Question: And the GI50 (UO-31 renal)?
Answer: 22.1 µM

Question: And the TGI (UO-31 renal)?
Answer: 94.4 µM

Question: What about the GI50 (T-47D breast) of the same compound?
Answer: 29.1 µM

Question: What about the TGI (T-47D breast) of the same compound?
Answer: > 100 µM

Question: What about the GI50 (SK-MEL-2 melanoma) of the same compound?
Answer: 19.6 µM

Question: And the TGI (SK-MEL-2 melanoma)?
Answer: 38.5 µM

Question: And the GI50 (UACC-257 melanoma)?
Answer: 21.6 µM

Question: What about the TGI (UACC-257 melanoma) of the same compound?
Answer: 44.8 µM

Question: And the GI50 (NCI-H226 lung)?
Answer: 99.9 µM

Question: And the TGI (NCI-H226 lung)?
Answer: > 100 µM

Question: And the GI50 (SK-MEL-5 melanoma)?
Answer: 15.5 µM

Question: And the TGI (SK-MEL-5 melanoma)?
Answer: 28.9 µM

Question: And the GI50 (COLO 205 colon)?
Answer: 14.1 µM

Question: What about the TGI (COLO 205 colon) of the same compound?
Answer: 29 µM

Question: What about the GI50 (OVCAR-8 ovarian) of the same compound?
Answer: > 100 µM

Question: And the TGI (OVCAR-8 ovarian)?
Answer: > 100 µM

Question: And the GI50 (HL-60(TB) leukemia)?
Answer: 27.7 µM

Question: What about the TGI (HL-60(TB) leukemia) of the same compound?
Answer: 72 µM

Question: And the GI50 (A498 renal)?
Answer: 19.1 µM

Question: What about the TGI (A498 renal) of the same compound?
Answer: 48.6 µM

Question: And the GI50 (HT29 colon)?
Answer: 16.5 µM

Question: And the TGI (HT29 colon)?
Answer: 33.6 µM

Question: What about the GI50 (NCI-H460 lung) of the same compound?
Answer: 35.4 µM

Question: And the TGI (NCI-H460 lung)?
Answer: > 100 µM

Question: What about the GI50 (MDA-MB-231 breast) of the same compound?
Answer: 39.7 µM

Question: What about the TGI (MDA-MB-231 breast) of the same compound?
Answer: > 100 µM

Question: And the GI50 (HCC-2998 colon)?
Answer: 35.4 µM

Question: And the TGI (HCC-2998 colon)?
Answer: > 100 µM

Question: What about the GI50 (SF-295 CNS) of the same compound?
Answer: 25.1 µM

Question: And the TGI (SF-295 CNS)?
Answer: 74.8 µM

Question: What about the GI50 (DU-145 prostate) of the same compound?
Answer: > 100 µM

Question: And the TGI (DU-145 prostate)?
Answer: > 100 µM

Question: What about the GI50 (MCF7 breast) of the same compound?
Answer: 32.7 µM

Question: And the TGI (MCF7 breast)?
Answer: > 100 µM
